In patent US4948783A, “Anticariogenic or antiperidontitic method” (Kabushiki Kaisya Advance Kaihatsu kenkyujo, priority 1985, dated 1990):
≈ marks a conversion by molar mass, not a printed value. Read-outs that look alike come from different tables or passages of the source. One block for each molecule: values may come before it.

Key:
S. mutans = test: Antibacterial activity (MIC) against S. mutans; assay type: cell-based, Streptococcus mutans (isolated from a human oral cavity); conditions: Streptococcus mutans
Description: (§1) A sample of vitamin L2 (methylthioadenosine) (Sigma Chemical Company) having the chemical formula shown below was dissolved in water, [drawing 3] the pH was adjusted to 7, and sterilization was carried out by autoclaving at 121° C. for 15 min or by filtration with membrane filters, to form a sterile solution. This sample solution mentioned above was added into a sterile basal medium (refer to Table 1) together with sterile distilled water to adjust the concentration of the sample. To this medium, S. mutans causing dental caries, Actinomyces naeslundii and A. viscosus causing dental caries and periondontitis, and B. gingivalis and Fusobacterium nucleatum causing periodontitis, each bacterium being isolated from a human oral cavity, were repectively inoculated. After incubation at 37° C. for 24 hrs, the MIC (minimal growth-inhibitoryconcentration: μg/ml) against each bacterium was determined. As a control, a 0.85% NaCl solution was used instead of the sample solution of vitamin L2. Furthermore, the effect of vitamin L2 on intestinal bacteria such as S. faecium, S. faecalis, Bifidobacterium bifidum, Lactobacillus acidophilus, and L. fermentum, isolated from the feces of healthy humans, was also determined by the same procedures.

B. gingivalis = test: Antibacterial activity (MIC) against B. gingivalis; assay type: cell-based, Bacteroides gingivalis (isolated from a human oral cavity); conditions: for MIC: Porphyromonas gingivalis
Description: as §1

S. faecalis = test: Effect on intestinal bacteria (MIC), S. faecalis; assay type: cell-based, S. faecalis (isolated from the feces of healthy humans); conditions: Enterococcus faecalis, Todd-Hewitt broth, 37° C., 24 hrs, read-out: MIC (minimal growth-inhibitory concentration)
Description: as §1

Bif. bifidum = test: Effect on intestinal bacteria (MIC), Bif. bifidum; assay type: cell-based; conditions: Bifidobacterium bifidum, GAM broth, 37° C., 24 hrs, read-out: MIC (minimal growth-inhibitory concentration)
Description: as §1

F. nucleatum = test: Antibacterial activity (MIC) against F. nucleatum; assay type: cell-based, Fusobacterium nucleatum (isolated from a human oral cavity); conditions: Fusobacterium nucleatum, GAM broth, 37° C., 24 hrs, read-out: MIC (minimal growth-inhibitory concentration)
Description: as §1

A. naeslundii = test: Antibacterial activity (MIC) against A. naeslundii; assay type: cell-based, Actinomyces naeslundii (isolated from a human oral cavity); conditions: Actinomyces naeslundii, Brain heart infusion broth, 37° C., 24 hrs, read-out: MIC (minimal growth-inhibitory concentration)
Description: as §1

S. faecium = test: Effect on intestinal bacteria (MIC), S. faecium; assay type: cell-based, S. faecium (isolated from the feces of healthy humans); conditions: Enterococcus faecium, Todd-Hewitt broth, 37° C., 24 hrs, read-out: MIC (minimal growth-inhibitory concentration)
Description: as §1

L. acidophilus = test: Effect on intestinal bacteria (MIC), L. acidophilus; assay type: cell-based; conditions: Lactobacillus acidophilus, Rogosa broth, 37° C., 24 hrs, read-out: MIC (minimal growth-inhibitory concentration)
Description: as §1

A. viscosus = test: Antibacterial activity (MIC) against A. viscosus; assay type: cell-based, A. viscosus (isolated from a human oral cavity); conditions: Actinomyces viscosus, Brain heart infusion broth, 37° C., 24 hrs, read-out: MIC (minimal growth-inhibitory concentration)
Description: as §1

L. fermentum = test: Effect on intestinal bacteria (MIC), L. fermentum; assay type: cell-based, L. fermentum (isolated from the feces of healthy humans); conditions: Limosilactobacillus fermentum, Rogosa broth, 37° C., 24 hrs, read-out: MIC (minimal growth-inhibitory concentration)
Description: as §1

[1] = 24 h, S. mutans, same procedures as in Example 1, read-out: MIC, S. mutans (Table 3)
[2] = 24 h, B. gingivalis, same procedures as in Example 1, read-out: MIC, B. gingivalis (Table 3)
[3] = 24 h, read-out: MIC, S. mutans (Table 3)

MIC (S. mutans; [1]): 1000 mg/L (≈ 3560 µM)
MIC (B. gingivalis; [2]): 250 mg/L (≈ 889 µM)
SMILES: CNc1ncnc2c1ncn2[C@@H]1O[C@H](CO)[C@@H](O)[C@H]1O [Material (2), N-6 methyladenosine]

MIC (S. faecalis): > 1000 mg/L
MIC (Bif. bifidum): > 1000 mg/L
MIC (F. nucleatum): 500 mg/L (≈ 1680 µM)
MIC (A. naeslundii): 32 mg/L (≈ 108 µM)
MIC (S. faecium): > 1000 mg/L
MIC (L. acidophilus): > 1000 mg/L
MIC (S. mutans; S. mutans, Todd-Hewitt broth, 37° C., 24 hrs, read-out: MIC (minimal growth-inhibitory concentration)): 63 mg/L (≈ 212 µM)
MIC (A. viscosus): 63 mg/L (≈ 212 µM)
MIC (L. fermentum): 1000 mg/L (≈ 3360 µM)
MIC (B. gingivalis; B. gingivalis, GAM broth, 37° C., 24 hrs, read-out: MIC (minimal growth-inhibitory concentration)): 125 mg/L (≈ 420 µM)
SMILES: CSC[C@H]1O[C@@H](n2cnc3c(N)ncnc32)[C@H](O)[C@@H]1O [vitamin L2, methylthioadenosine]

MIC (S. mutans; [1]): 1000 mg/L (≈ 3310 µM)
MIC (B. gingivalis; [2]): 250 mg/L (≈ 829 µM)
SMILES: Nc1nc(Cl)nc2c1ncn2[C@@H]1O[C@H](CO)[C@@H](O)[C@H]1O [Material (4), 2-chloroadenosine]

MIC (S. mutans; [1]): 1000 mg/L (≈ 3980 µM)
MIC (B. gingivalis; [2]): 125 mg/L (≈ 498 µM)
SMILES: C[C@H]1O[C@@H](n2cnc3c(N)ncnc32)[C@H](O)[C@@H]1O [Material (8), 5'-deoxyadenosine]

MIC (S. mutans; [1]): 250 mg/L (≈ 875 µM)
MIC (B. gingivalis; [2]): 125 mg/L (≈ 438 µM)
SMILES: Nc1ncnc2c1ncn2[C@@H]1O[C@H](CCl)[C@@H](O)[C@H]1O [Material (1), 5'-deoxy-5'-chloroadenosine]

The remaining lines, values behind:

SMILES: OC[C@H]1O[C@@H](n2cnc3c(NCc4ccccc4)ncnc32)[C@H](O)[C@@H]1O [Material (3), N-6 benzyladenosine]
MIC (S. mutans; [1]): 1000 mg/L (≈ 2800 µM)
MIC (B. gingivalis; [2]): 250 mg/L (≈ 700 µM)

SMILES: Nc1ncnc2c1ncn2[C@@H]1O[C@H](CO)[C@@H](O)[C@@H]1O [Material (7), spongoadenosine]
MIC (S. mutans; [3]): 1500 mg/L (≈ 5610 µM)
MIC (B. gingivalis; 24 h, read-out: MIC, B. gingivalis (Table 3)): 16 mg/L (≈ 59.9 µM)

SMILES: Nc1ncnc2c1ncn2[C@@H]1O[C@H](CO)[C@@H](O)[C@H]1O [Material (6), adenosine]
MIC (S. mutans; [3]): 1000 mg/L (≈ 3740 µM)
MIC, B. gingivalis (Table 3) (B. gingivalis; B. gingivalis, same procedures as in Example 1): No inhibition

SMILES: CC(C)CSC[C@H]1O[C@@H](n2cnc3c(N)ncnc32)[C@H](O)[C@@H]1O [Material (5), (5'-deoxy) isobutylthioadenosine]
MIC (S. mutans; [1]): 1500 mg/L (≈ 4420 µM)
MIC (B. gingivalis; [2]): 250 mg/L (≈ 737 µM)
